Laboratory results reported in US12644142B2, “Sugar composition containing cyclic tetrasaccharide, use thereof, and production method therefor” (NAGASE VIITA CO., LTD., priority 2019, dated 2026).

Legend:
[1] = purity of 98% by mass, aqueous solution with a solid concentration of 50% by mass; cited from earlier work
[2] = Preliminary evaluation of digestion and absorption after oral ingestion; assay type: in vivo; details: orally ingested into a human body

## OC[C@H]1O[C@@H]2OC[C@H]3O[C@H](O[C@@H]4[C@@H](O)[C@@H](OC[C@H]5O[C@H](O[C@H]([C@H]2O)[C@@H]1O)[C@H](O)[C@@H](O)[C@@H]5O)O[C@H](CO)[C@H]4O)[C@H](O)[C@@H](O)[C@@H]3O [cyclic tetrasaccharide, cyclo{→6)-α-D-glucopyranosyl-(1→3)-α-D-glucopyranosyl-(1→6)-α-D-glucopyranosyl-(1→3)-α-D-glucopyranosyl-(1→}]
[1]
  precipitation of crystals: easily causes precipitation of crystals
[2]
  digestion and absorption after oral ingestion: reaches the large intestine without being digested or absorbed
